From patent publication US20220267298A1 (priority 2019, published 2022)
Where “and” joins values, the source holds several entries; their conditions need not be identical. Identical values can stand only once.

biological target: T1, GRK2 (Homo sapiens, UniProt P25098); assay: biochemical; conditions: GRK2 IC50 (μM), 10 nM GRK2; 10 uM ATP
T1 sequence (P25098 1-689): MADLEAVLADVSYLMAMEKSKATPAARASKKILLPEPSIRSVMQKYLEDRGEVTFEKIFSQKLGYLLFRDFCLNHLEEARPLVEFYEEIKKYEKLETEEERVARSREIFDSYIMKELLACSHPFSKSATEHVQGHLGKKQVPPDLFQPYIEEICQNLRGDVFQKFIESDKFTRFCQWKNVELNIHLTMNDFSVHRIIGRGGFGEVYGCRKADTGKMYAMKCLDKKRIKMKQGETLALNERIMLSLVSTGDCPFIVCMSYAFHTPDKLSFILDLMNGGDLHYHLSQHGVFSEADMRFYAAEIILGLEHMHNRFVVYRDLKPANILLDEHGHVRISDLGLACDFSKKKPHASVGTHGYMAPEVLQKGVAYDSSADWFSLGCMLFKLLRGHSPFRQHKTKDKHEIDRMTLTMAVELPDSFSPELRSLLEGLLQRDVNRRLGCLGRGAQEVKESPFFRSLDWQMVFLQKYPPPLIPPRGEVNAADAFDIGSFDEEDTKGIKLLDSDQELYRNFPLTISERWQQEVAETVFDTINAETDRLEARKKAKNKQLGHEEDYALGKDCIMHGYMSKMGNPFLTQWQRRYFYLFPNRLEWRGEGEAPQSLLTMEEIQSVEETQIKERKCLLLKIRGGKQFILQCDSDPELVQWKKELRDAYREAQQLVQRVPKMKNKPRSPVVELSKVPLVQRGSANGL
Method: Positive and negative control wells received an equal volume of DMSO. The final DMSO concentration in the assay is 1%.
The plate was placed in centrifuge equipped with a spin-bucket rotor and spun for 1 min at 1000 rpm.
GRK2 enzymatic reactions were initiated with the addition of 2 μL/well of 50 nM GRK2 in assay buffer. Plates were centrifuged for 1 min at 1000 rpm. For negative control wells, the order of reagent addition was reversed: 10 μL/well ADP detection mix (see below) was added first, followed by the addition of 2 μL/well of the GRK2 solution. Reaction mixtures were incubated at ambient temperature for 2 hours.
Following incubation, the reactions were quenched with 10 μL/well of the Transcreener ADP detection mix. […] The plates were then centrifuged for 1 min at 1000 rpm.
Fluorescence polarization values of the reaction mixtures were read on a Safire II plate reader after a 60 min incubation at ambient temperature. Excitation wavelength=590 nm; emission wavelength=650 nm.
The fluorescence polarization data were converted to % activity as follows:
% activity=(sample−NC)/(PC−NC)*100
where NC is the mean of negative control (ADP detection mix added prior to GRK2 addition), and PC is the mean of positive control (GRK2 reaction without inhibitor). IC50 values are determined from a 4-parameter fit, using the following equation:
Y=Bottom+(Top−Bottom)/(1+10^((Log IC50-X)*Hill slope)),
where X=log10 of the compound concentration.

Compound	IC50
O=c1c2cc(-c3cn[nH]c3)ccc2ncn1Cc1cccc(OCc2ccccc2)c1 [Compound 63, 3-[(3-Benzyloxyphenyl)methyl]-6-(1H-pyrazol-4-yl)quinazolin-4-one]	0.065 µM
O=C(O)COc1cccc(Cn2cnc3ccc(-c4cn[nH]c4)cc3c2=O)c1 [Compound 27, 2-[3-[[4-Oxo-6-(1H-pyrazol-4-yl)quinazolin-3-yl]methyl]phenoxy]acetic acid]	0.088 µM
COc1cccc([C@@H](C)n2cnc3ccc(-c4cn[nH]c4)cc3c2=O)c1 [Compound 39, 3-[(1R)-1-(3-Methoxyphenyl)ethyl]-6-(1H-pyrazol-4-yl)quinazolin-4-one]	0.009 µM and 0.017 µM
COc1cccc(C(C)n2cnc3ccc(-c4c[nH]nc4N)cc3c2=O)c1 (stereo not shown) [Compound 19, 6-(3-Amino-1H-pyrazol-4-yl)-3-[1-(3-methoxyphenyl)ethyl]quinazolin-4-one]	> 50 µM
CCC(c1cccc(OC)c1)n1cnc2ccc(-c3cn[nH]c3)cc2c1=O (stereo not shown) [Compound 35, 3-[1-(3-Methoxyphenyl)propyl]-6-(1H-pyrazol-4-yl)quinazolin-4-one]	0.122 µM
[2H]C([2H])(Oc1cccc([C@@H](C)n2cnc3ccc(-c4cn[nH]c4)cc3c2=O)c1)C(=O)NC1CC1 [Compound 23, N-Cyclopropyl-2,2-dideuterio-2-[3-[(1R)-1-[4-oxo-6-(1H-pyrazol-4-yl)quinazolin-3-yl]ethyl]phenoxy]acetamide]	0.035 µM
O=C(NCc1c(F)cccc1F)c1cc(F)cc(Cn2cnc3ccc(-c4cn[nH]c4)cc3c2=O)c1 [Compound 72, N-(2,6-Difluorobenzyl)-3-fluoro-5-((4-oxo-6-(1H-pyrazol-4-yl)quinazolin-3(4H)-yl)methyl)benzamide]	< 0.01 µM
COCCNc1nccc(-c2ccc3ncn(Cc4cccc(OC)c4)c(=O)c3c2)n1 [Compound C6, 6-[2-(2-Methoxyethylamino)pyrimidin-4-yl]-3-[(3-methoxyphenyl)methyl]quinazolin-4-one]	> 50 µM
O=c1c2cc(-c3c[nH]nc3C(F)(F)F)ccc2ncn1Cc1c(F)cccc1F [Compound 77, 3-[(2,6-Difluorophenyl)methyl]-6-[3-(trifluoromethyl)-1H-pyrazol-4-yl]quinazolin-4-one]	> 20 µM
O=c1c2cc(-c3cn[nH]c3)ccc2ncn1Cc1cccc(Cl)c1 [Compound 50, 3-[(3-Chlorophenyl)methyl]-6-(1H-pyrazol-4-yl)quinazolin-4-one]	0.075 µM
COc1cccc(C(CCO)n2cnc3ccc(-c4cn[nH]c4)cc3c2=O)c1 (stereo not shown) [Compound 32, 3-(3-Hydroxy-1-(3-methoxyphenyl)propyl)-6-(1H-pyrazol-4-yl)quinazolin-4(3H)-one]	0.157 µM
COc1cccc(Cn2cnc3ccc(-c4cnc(N)nc4)cc3c2=O)c1 [Compound 52, 6-(2-Aminopyrimidin-5-yl)-3-(3-methoxybenzyl)quinazolin-4(3H)-one]	> 19 µM
COc1cccc(Cn2c(C)nc3ccc(-c4cn[nH]c4)cc3c2=O)c1 [Compound 20, 3-[(3-Methoxyphenyl)methyl]-2-methyl-6-(1H-pyrazol-4-yl)quinazolin-4-one]	0.014 µM
O=C(NCc1c(F)cccc1F)c1ccc(Cn2cnc3ccc(-c4cn[nH]c4)cc3c2=O)cc1 [Compound C3, N-[(2,6-Difluorophenyl)methyl]-4-[[4-oxo-6-(1H-pyrazol-4-yl)quinazolin-3-yl]methyl]benzamide]	~20 µM
CCOc1cccc(C(CS(C)(=O)=O)n2cnc3ccc(-c4cn[nH]c4)cc3c2=O)c1 (stereo not shown) [Compound 15, 3-(1-(3-Ethoxyphenyl)-2-(methylsulfonyl)ethyl)-6-(1H-pyrazol-4-yl)quinazolin-4(3H)-one]	5.59 µM
CC(c1cccc(C(=O)NCc2ccc(F)cc2)c1)n1cnc2ccc(-c3cn[nH]c3)cc2c1=O (stereo not shown) [Compound 61, N-[(4-Fluorophenyl)methyl]-3-[1-[4-oxo-6-(1H-pyrazol-4-yl)quinazolin-3-yl]ethyl]benzamide]	0.007 µM
COc1cc(Cn2cnc3ccc(-c4ccnc5[nH]ccc45)cc3c2=O)ccc1F [Compound 54, 3-[(4-Fluoro-3-methoxy-phenyl)methyl]-6-(1H-pyrrolo[2,3-b]pyridin-4-yl)quinazolin-4-one]	12.3 µM
COc1cccc(C(CO)n2cnc3ccc(-c4cn[nH]c4)cc3c2=O)c1 (stereo not shown) [Compound 42, 3-[2-Hydroxy-1-(3-methoxyphenyl)ethyl]-6-(1H-pyrazol-4-yl)quinazolin-4-one]	0.025 µM
COc1cccc(Cn2cnc3ccc(-c4c[nH]c5ncccc45)cc3c2=O)c1 [Compound 43, 3-[(3-Methoxyphenyl)methyl]-6-(1H-pyrrolo[2,3-b]pyridin-3-yl)quinazolin-4-one]	0.757 µM

Compound	IC50
COc1cccc(Cn2cnc3ccc(-c4cn[nH]c(=O)c4)cc3c2=O)c1 [Compound 46, 3-[(3-Methoxyphenyl)methyl]-6-(6-oxo-1H-pyridazin-4-yl)quinazolin-4-one]	1.46 µM
COc1cccc(Cn2cnc3ccc(-c4nn[nH]n4)cc3c2=O)c1 [Compound 48, 3-[(3-Methoxyphenyl)methyl]-6-(2H-tetrazol-5-yl)quinazolin-4-one]	> 50 µM
O=C(NCc1ccc(F)cc1)c1cccc(-n2cnc3ccc(-c4cn[nH]c4)cc3c2=O)c1 [Compound C1, N-[(4-Fluorophenyl)methyl]-3-[4-oxo-6-(1H-pyrazol-4-yl)quinazolin-3-yl]benzamide]	1.63 µM
O=c1c2cc(-c3cn[nH]c3)ccc2ncn1Cc1cccc(OC(F)(F)F)c1 [Compound 66, 6-(1H-Pyrazol-4-yl)-3-[[3-(trifluoromethoxy)phenyl]methyl]quinazolin-4-one]	22.2 µM
O=c1c2cc(-c3cccnc3)ccc2ncn1Cc1cccc(Cl)c1 [Compound 49, 3-[(3-Chlorophenyl)methyl]-6-(3-pyridyl)quinazolin-4-one]	> 50 µM
COc1cccc(Cn2cnc3ccc(-c4ccnc5[nH]ccc45)cc3c2=O)c1 [Compound 53, 3-[(3-Methoxyphenyl)methyl]-6-(1H-pyrrolo[2,3-b]pyridin-4-yl)quinazolin-4-one]	2.45 µM
Cc1nc2ccc(-c3cn[nH]c3)cc2c(=O)n1Cc1cccc(OC2CN(C)C2)c1 [Compound 25, 2-Methyl-3-(3-((1-methylazetidin-3-yl)oxy)benzyl)-6-(1H-pyrazol-4-yl)quinazolin-4(3H)-one]	2.34 µM
COc1cccc(Cn2c(C(F)(F)F)nc3ccc(-c4cn[nH]c4)cc3c2=O)c1 [Compound 21, 3-[(3-Methoxyphenyl)methyl]-6-(1H-pyrazol-4-yl)-2-(trifluoromethyl)quinazolin-4-one]	0.425 µM
COc1cccc(C(CCN(C)C)n2cnc3ccc(-c4cn[nH]c4)cc3c2=O)c1 (stereo not shown) [Compound 29, 3-(3-(Dimethylamino)-1-(3-methoxyphenyl)propyl)-6-(1H-pyrazol-4-yl)quinazolin-4(3H)-one]	0.054 µM
O=c1c2cc(-c3cn[nH]c3)ccc2ncn1Cc1cccc2c1OCO2 [Compound C4, 3-(1,3-Benzodioxol-4-ylmethyl)-6-(1H-pyrazol-4-yl)quinazolin-4-one]	0.093 µM
COc1cccc(Cn2cnc3ccc(-n4cn[nH]c4=O)cc3c2=O)c1 [Compound 38, 3-[(3-Methoxyphenyl)methyl]-6-(5-oxo-1H-1,2,4-triazol-4-yl)quinazolin-4-one]	0.129 µM
COc1cccc(Cn2cnc3ccc(-c4cn[nH]n4)cc3c2=O)c1 [Compound 44, 3-[(3-Methoxyphenyl)methyl]-6-(2H-triazol-4-yl)quinazolin-4-one]	0.1 µM
COc1ccc(F)cc1Cn1cnc2ccc(-c3cn[nH]c3)cc2c1=O [Compound 40, 3-[(5-Fluoro-2-methoxy-phenyl)methyl]-6-(1H-pyrazol-4-yl)quinazolin-4-one]	1.72 µM
COc1cccc(Cn2cnc3ccc(-c4c[nH]nc4C)cc3c2=O)c1 [Compound 37, 3-[(3-Methoxyphenyl)methyl]-6-(3-methyl-1H-pyrazol-4-yl)quinazolin-4-one]	0.066 µM
O=C(NCc1ccc(F)cc1F)c1ccc(Cn2cnc3ccc(-c4cn[nH]c4)cc3c2=O)cc1 [Compound C2, N-[(2,4-Difluorophenyl)methyl]-4-[[4-oxo-6-(1H-pyrazol-4-yl)quinazolin-3-yl]methyl]benzamide]	4.34 µM
NC1CCN(c2nc3ccc(-c4cn[nH]c4)cc3c(=O)n2Cc2cccc(C(=O)NCc3ccc(F)cc3)c2)C1 (stereo not shown) [Compound 55, 3-[[2-(3-Aminopyrrolidin-1-yl)-4-oxo-6-(1H-pyrazol-4-yl)quinazolin-3-yl]methyl]-N-[(4-fluorophenyl)methyl]benzamide]	0.014 µM
CC(c1cccc(OCCS(C)(=O)=O)c1)n1cnc2ccc(-c3cn[nH]c3)cc2c1=O (stereo not shown) [Compound 17, 3-(1-(3-(2-(Methylsulfonyl)ethoxy)phenyl)ethyl)-6-(1H-pyrazol-4-yl)quinazolin-4(3H)-one]	1.31 µM
COc1cccc(C(C2CCS(=O)(=O)CC2)n2cnc3ccc(-c4cn[nH]c4)cc3c2=O)c1 (stereo not shown) [Compound 22, 3-((1,1-Dioxidotetrahydro-2H-thiopyran-4-yl)(3-methoxyphenyl)methyl)-6-(1H-pyrazol-4-yl)quinazolin-4(3H)-one]	4.11 µM
